Six compounds from BindingDB's records for doi:10.1021/jm0409019 (Institute of Chemical Sciences and Engineering, 2005) can be followed below.

Assay [1] has as its target alpha-mannosidase (Canavalia ensiformis). The experiment in a line: Binding affinity towards alpha-Mannosidase isolated from jack bean.
Assay [2] shares this target. Nature of the assay: Inhibition of alpha-Mannosidase isolated from Jack bean.
For assay [3] the target is unchanged. The experiment in a line: Concentration of compound inhibiting alpha-Mannosidase isolated from Jack bean.
The target is the same in assay [4]. The experiment in a line: Binding affinity towards alpha-Mannosidase isolated from Jack bean.

As usually defined, the Ki is the dissociation constant of the complex between target and ligand, obtained from inhibition or displacement. Low readings indicate higher affinity, high ones lower affinity. For orientation: IC50 means the midpoint of a concentration-inhibition curve.

Take `O[C@H]1[C@@H](O)CN[C@@H]1CNC(COCc1ccccc1)c1ccccc1` (stereo partly drawn) [(2R,3R,4S)-2-[((R)-2-Benzyloxy-1-phenyl-ethylamino)-methyl]-pyrrolidine-3,4-diol]: the affinity in assay [1], expressed as Ki, was 16 µM. This compound came in with an IC50 in assay [2] of 58 µM. The compound `O[C@H]1[C@@H](O)CN[C@@H]1CNC1CCc2ccccc21` (stereo partly drawn) [(2R,3R,4S)-2-((R)-Indan-1-ylaminomethyl)-pyrrolidine-3,4-diol] yielded an IC50 in assay [3] of 17 µM. This compound yielded a Ki in assay [4] of 2.3 µM. For `O[C@H]1[C@@H](O)CN[C@@H]1CN[C@H](c1ccccc1)[C@@H](O)c1ccccc1` [(2R,3R,4S)-2-[((S)-Phenyl-1-(R)-2-hydroxy-2-phenyl-ethylamino)-methyl]-pyrrolidine-3,4-diol], inhibition in assay [3] was half-maximal at 110 µM (IC50). `O=C(NCC(NC[C@H]1NC[C@H](O)[C@@H]1O)c1ccccc1)c1cccc(Br)c1` (stereo partly drawn) [3-Bromo-N-{2-[((2R,3R,4S)-3,4-dihydroxy-pyrrolidin-2-ylmethyl)-amino]-2-phenyl-ethyl}-benzamide] displayed an IC50 in assay [3] of 89 µM. This IC50 and that of the compound before are within 1.5-fold of each other.

In turn, `O[C@H]1[C@@H](O)CN[C@@H]1CN[C@@H](c1ccccc1)[C@H](O)c1ccccc1` [(2R,3R,4S)-2-[((R)-Phenyl-1-(S)-2-hydroxy-2-phenyl-ethylamino)-methyl]-pyrrolidine-3,4-diol] yielded an IC50 in assay [3] of 128 µM. `OCC(NC[C@H]1N[C@H](CO)[C@H](O)[C@@H]1O)c1ccccc1` (stereo partly drawn) [(2R,3S,4R,5R)-2-Hydroxymethyl-5-[((R)-2-hydroxy-1-phenyl-ethylamino)-methyl]-pyrrolidine-3,4-diol] yielded an IC50 in assay [3] of 4.2 µM. Moreover, the Ki in assay [4] is 1.35 µM.
